Source: ChEMBL document CHEMBL4382229, “Benzofuran derivatives and their anti-tubercular, anti-bacterial activities” (Eur J Med Chem, 2019)
In brackets after ≈: the same amount, converted by molar mass.

What was measured:
Type in all cases: functional
[1] = test system: Escherichia coli; assay: Antibacterial activity against Escherichia coli by broth dilution method
[2] = test system: Pseudomonas aeruginosa; assay: Antibacterial activity against Pseudomonas aeruginosa by broth dilution method
[3] = test system: Pseudomonas aeruginosa; assay: Antibacterial activity against Pseudomonas aeruginosa MTCC 1034 after 24 hrs by broth dilution method; details: MTCC 1034, 24 h
[4] = test system: Escherichia coli; assay: Antibacterial activity against Escherichia coli MTCC 1559 after 24 hrs by broth dilution method; details: MTCC 1559, 24 h
[5] = test system: Bacillus subtilis; assay: Antibacterial activity against Bacillus subtilis MTCC 1134 after 24 hrs by broth dilution method; details: MTCC 1134, 24 h
[6] = test system: Staphylococcus aureus; assay: Antibacterial activity against Staphylococcus aureus NCIM 2079 assessed as zone of inhibition at 1 ug/ml after 24 hrs by agar diffusion method; details: NCIM 2079, 24 h, read-out: IZ
[7] = test system: Escherichia coli; assay: Antibacterial activity against Escherichia coli NCIM 2064 assessed as zone of inhibition at 1 ug/ml after 24 hrs by agar diffusion method; details: NCIM 2064, 24 h, read-out: IZ
[8] = test system: Bacillus subtilis; assay: Antibacterial activity against Bacillus subtilis NCIM 2439 assessed as zone of inhibition at 1 ug/ml after 24 hrs by agar diffusion method; details: NCIM 2439, 24 h, read-out: IZ
[9] = test system: Pseudomonas aeruginosa; assay: Antibacterial activity against Pseudomonas aeruginosa NCIB 8650 assessed as zone of inhibition at 1 ug/ml after 24 hrs by agar diffusion method; details: NCIB 8650, 24 h, read-out: IZ
[10] = test system: Klebsiella pneumoniae; assay: Antibacterial activity against Klebsiella pneumoniae assessed as zone of inhibition at 1 mg/ml after 32 hrs by agar-well diffusion method; details: read-out: IZ
[11] = test system: Staphylococcus aureus; assay: Antibacterial activity against Staphylococcus aureus assessed as zone of inhibition at 1 mg/ml after 32 hrs by agar-well diffusion method; details: read-out: IZ
[12] = test system: Escherichia coli; assay: Antibacterial activity against Escherichia coli assessed as zone of inhibition at 1 mg/ml after 32 hrs by agar-well diffusion method; details: read-out: IZ
[13] = test system: Pseudomonas aeruginosa; assay: Antibacterial activity against Pseudomonas aeruginosa assessed as zone of inhibition at 1 mg/ml after 32 hrs by agar-well diffusion method; details: read-out: IZ

In the case of `O=c1oc2ccc(Br)cc2cc1-c1coc2ccc3ccccc3c12`, the MIC [1] is reported as 6.25 to 100 µg/mL (≈ 16 to 256 µM) and the MIC [2] is reported as 6.25 to 100 µg/mL (≈ 16 to 256 µM).

`Nc1nc(-c2cc3ccccc3o2)cc(-c2cccs2)n1` showed an MIC [3] of 4.32 to 18.4 µg/mL (≈ 14.7 to 62.9 µM), an MIC [4] of 4.32 to 18.4 µg/mL (≈ 14.7 to 62.9 µM) and an MIC [5] of 4.32 to 18.4 µg/mL (≈ 14.7 to 62.9 µM).

Molecule `COC(=O)c1cc(-c2cc3cc(Br)ccc3o2)n(-c2ccccc2)n1` has a zone of inhibition at 1 µg/mL [6] of 9 to 30 mm, a zone of inhibition at 1 µg/mL [7] of 9 to 30 mm and a zone of inhibition at 1 µg/mL [8] of 9 to 30 mm. The zone of inhibition at 1 µg/mL [9] was 9 to 30 mm.

With `Cc1ccc(-c2cc(-c3cc4cc(Br)ccc4o3)nc(S)n2)s1` the MIC [3] was 4.32 to 18.4 µg/mL (≈ 10.7 to 45.7 µM), the MIC [4] was 4.32 to 18.4 µg/mL (≈ 10.7 to 45.7 µM) and the MIC [5] was 4.32 to 18.4 µg/mL (≈ 10.7 to 45.7 µM).

`c1ccc(-c2csc3nc(-c4cc5ccccc5o4)cn23)cc1` was tested, and the zone of inhibition at 1000 µg/mL [10] was 6 to 23 mm, the zone of inhibition at 1000 µg/mL [11] was 6 to 23 mm and the zone of inhibition at 1000 µg/mL [12] was 6 to 23 mm. It also gave a zone of inhibition at 1000 µg/mL [13] of 6 to 23 mm.

`O=c1oc2ccccc2cc1-c1coc2ccc3ccccc3c12` was tested, and the MIC [1] was 6.25 to 100 µg/mL (≈ 20 to 320 µM) and the MIC [2] was 6.25 to 100 µg/mL (≈ 20 to 320 µM).

In the case of `COC(=O)c1cc(-c2cc3ccccc3o2)[nH]n1`, the zone of inhibition at 1 µg/mL [6] is reported as 9 to 30 mm, the zone of inhibition at 1 µg/mL [7] is reported as 9 to 30 mm and the zone of inhibition at 1 µg/mL [8] is reported as 9 to 30 mm. It also gave a zone of inhibition at 1 µg/mL [9] of 9 to 30 mm.

For `Cc1ccc(-c2cc(-c3cc4ccccc4o3)nc(S)n2)s1`, the MIC [3] was 4.32 to 18.4 µg/mL (≈ 13.3 to 56.9 µM), the MIC [4] was 4.32 to 18.4 µg/mL (≈ 13.3 to 56.9 µM) and the MIC [5] was 4.32 to 18.4 µg/mL (≈ 13.3 to 56.9 µM).

Molecule `Brc1ccc2oc(-c3cn4c(-c5cc6cc(Br)ccc6o5)csc4n3)cc2c1` has a zone of inhibition at 1000 µg/mL [10] of 6 to 23 mm, a zone of inhibition at 1000 µg/mL [11] of 6 to 23 mm and a zone of inhibition at 1000 µg/mL [12] of 6 to 23 mm. The zone of inhibition at 1000 µg/mL [13] was 6 to 23 mm.

In the case of `COC(=O)c1cc(-c2oc3c(Cl)cc(Cl)cc3c2C)[nH]n1`, the zone of inhibition at 1 µg/mL [6] is reported as 19 to 30 mm, the zone of inhibition at 1 µg/mL [7] is reported as 19 to 30 mm and the zone of inhibition at 1 µg/mL [8] is reported as 19 to 30 mm. For the same molecule, the zone of inhibition at 1 µg/mL [9] was 19 to 30 mm.

In the case of `Cc1ccc2c(-c3cc4ccccc4oc3=O)coc2c1`, the MIC [1] is reported as 6.25 to 100 µg/mL (≈ 22.6 to 362 µM) and the MIC [2] is reported as 6.25 to 100 µg/mL (≈ 22.6 to 362 µM).

`Cc1ccc(-c2csc3nc(-c4cc5ccccc5o4)cn23)cc1` showed a zone of inhibition at 1000 µg/mL [10] of 6 to 23 mm, a zone of inhibition at 1000 µg/mL [11] of 6 to 23 mm and a zone of inhibition at 1000 µg/mL [12] of 6 to 23 mm. The zone of inhibition at 1000 µg/mL [13] was 6 to 23 mm.

With `O=c1oc2ccc(Br)cc2cc1-c1coc2c1ccc1ccccc12` the MIC [1] was 6.25 to 100 µg/mL (≈ 16 to 256 µM) and the MIC [2] was 6.25 to 100 µg/mL (≈ 16 to 256 µM).

`CCOC(=O)c1cc(-c2cc3cc(Br)ccc3o2)on1` was tested, and the zone of inhibition at 1 µg/mL [6] was 9 to 30 mm, the zone of inhibition at 1 µg/mL [7] was 9 to 30 mm and the zone of inhibition at 1 µg/mL [8] was 9 to 30 mm. The zone of inhibition at 1 µg/mL [9] was 9 to 30 mm.

`COC(=O)c1cc(-c2oc3ccc(Cl)cc3c2C)n(C(N)=O)n1` gave a zone of inhibition at 1 µg/mL [6] of 9 to 30 mm, a zone of inhibition at 1 µg/mL [7] of 9 to 30 mm and a zone of inhibition at 1 µg/mL [8] of 9 to 30 mm. For the same molecule, the zone of inhibition at 1 µg/mL [9] was 9 to 30 mm.

`Cc1ccc(-c2csc3nc(-c4cc5cc(Br)ccc5o4)cn23)cc1` showed a zone of inhibition at 1000 µg/mL [10] of 6 to 23 mm, a zone of inhibition at 1000 µg/mL [11] of 6 to 23 mm and a zone of inhibition at 1000 µg/mL [12] of 6 to 23 mm. The zone of inhibition at 1000 µg/mL [13] was 6 to 23 mm.

For `CCOC(=O)c1cc(-c2cc3ccccc3o2)on1`, the zone of inhibition at 1 µg/mL [6] was 9 to 30 mm, the zone of inhibition at 1 µg/mL [7] was 9 to 30 mm and the zone of inhibition at 1 µg/mL [8] was 9 to 30 mm. It also gave a zone of inhibition at 1 µg/mL [9] of 9 to 30 mm.

`Cc1ccc(-c2cc(-c3cc4ccccc4o3)nc(O)n2)s1` showed an MIC [3] of 4.32 to 18.4 µg/mL (≈ 14 to 59.8 µM), an MIC [4] of 4.32 to 18.4 µg/mL (≈ 14 to 59.8 µM) and an MIC [5] of 4.32 to 18.4 µg/mL (≈ 14 to 59.8 µM).

In the case of `Cc1c(-c2cc(C(=O)NN)nn2-c2ccccc2)oc2c(Cl)cc(Cl)cc12`, the zone of inhibition at 1 µg/mL [6] is reported as 9 to 30 mm, the zone of inhibition at 1 µg/mL [7] is reported as 9 to 30 mm and the zone of inhibition at 1 µg/mL [8] is reported as 9 to 30 mm. For the same molecule, the zone of inhibition at 1 µg/mL [9] was 9 to 30 mm.

In the case of `c1ccc2oc(-c3cn4c(-c5cc6ccccc6o5)csc4n3)cc2c1`, the zone of inhibition at 1000 µg/mL [10] is reported as 6 to 23 mm, the zone of inhibition at 1000 µg/mL [11] is reported as 6 to 23 mm and the zone of inhibition at 1000 µg/mL [12] is reported as 6 to 23 mm. For the same molecule, the zone of inhibition at 1000 µg/mL [13] was 6 to 23 mm.

Work on `CCOC(=O)c1cc(-c2oc3c(Cl)cc(Cl)cc3c2C)on1` yielded a zone of inhibition at 1 µg/mL [6] of 9 to 30 mm, a zone of inhibition at 1 µg/mL [7] of 9 to 30 mm and a zone of inhibition at 1 µg/mL [8] of 9 to 30 mm. It also gave a zone of inhibition at 1 µg/mL [9] of 9 to 30 mm.

Molecule `Oc1nc(-c2cc3cc(Br)ccc3o2)cc(-c2cccs2)n1` has an MIC [3] of 4.32 to 18.4 µg/mL (≈ 11.6 to 49.4 µM), an MIC [4] of 4.32 to 18.4 µg/mL (≈ 11.6 to 49.4 µM) and an MIC [5] of 4.32 to 18.4 µg/mL (≈ 11.6 to 49.4 µM).

`Brc1ccc2oc(-c3cn4c(-c5cc6ccccc6o5)csc4n3)cc2c1` gave a zone of inhibition at 1000 µg/mL [10] of 6 to 23 mm, a zone of inhibition at 1000 µg/mL [11] of 6 to 23 mm and a zone of inhibition at 1000 µg/mL [12] of 6 to 23 mm. The zone of inhibition at 1000 µg/mL [13] was 6 to 23 mm.

`Fc1ccc(-c2csc3nc(-c4cc5ccccc5o4)cn23)cc1` showed a zone of inhibition at 1000 µg/mL [10] of 6 to 23 mm, a zone of inhibition at 1000 µg/mL [11] of 6 to 23 mm and a zone of inhibition at 1000 µg/mL [12] of 6 to 23 mm. For the same molecule, the zone of inhibition at 1000 µg/mL [13] was 6 to 23 mm.

Molecule `COC(=O)c1cc(-c2cc3cc(Br)ccc3o2)n(C(N)=O)n1` has a zone of inhibition at 1 µg/mL [6] of 9 to 30 mm, a zone of inhibition at 1 µg/mL [7] of 9 to 30 mm and a zone of inhibition at 1 µg/mL [8] of 9 to 30 mm. For the same molecule, the zone of inhibition at 1 µg/mL [9] was 9 to 30 mm.

With `Cc1ccc2occ(-c3cc4cc(Br)ccc4oc3=O)c2c1` the MIC [1] was 6.25 to 100 µg/mL (≈ 17.6 to 282 µM) and the MIC [2] was 6.25 to 100 µg/mL (≈ 17.6 to 282 µM).
